{"source": "paper PMC3701944", "about": "(Journal of medicinal chemistry, 2013)", "assay_type_in_all_cases": "biochemical", "key": {"[1]": {"target": "cloned human δ opioid receptor (DOP) (Homo sapiens, UniProt P41143)", "sequence (P41143 whole entry)": "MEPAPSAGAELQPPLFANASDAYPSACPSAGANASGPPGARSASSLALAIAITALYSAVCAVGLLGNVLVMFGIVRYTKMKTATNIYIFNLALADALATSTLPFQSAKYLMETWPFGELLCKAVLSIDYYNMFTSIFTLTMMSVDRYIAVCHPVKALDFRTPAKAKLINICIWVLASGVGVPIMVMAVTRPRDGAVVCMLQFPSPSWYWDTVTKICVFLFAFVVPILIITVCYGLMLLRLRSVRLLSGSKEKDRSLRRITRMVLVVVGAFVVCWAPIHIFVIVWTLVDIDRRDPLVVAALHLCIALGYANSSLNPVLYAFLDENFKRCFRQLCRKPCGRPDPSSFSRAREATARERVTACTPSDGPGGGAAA", "test": "[35S]GTPγS binding assay, inhibition of DPDPE-stimulated binding"}, "[2]": {"target": "cloned human μ opioid receptor (MOP) (Homo sapiens, UniProt P35372)", "sequence (P35372 whole entry)": "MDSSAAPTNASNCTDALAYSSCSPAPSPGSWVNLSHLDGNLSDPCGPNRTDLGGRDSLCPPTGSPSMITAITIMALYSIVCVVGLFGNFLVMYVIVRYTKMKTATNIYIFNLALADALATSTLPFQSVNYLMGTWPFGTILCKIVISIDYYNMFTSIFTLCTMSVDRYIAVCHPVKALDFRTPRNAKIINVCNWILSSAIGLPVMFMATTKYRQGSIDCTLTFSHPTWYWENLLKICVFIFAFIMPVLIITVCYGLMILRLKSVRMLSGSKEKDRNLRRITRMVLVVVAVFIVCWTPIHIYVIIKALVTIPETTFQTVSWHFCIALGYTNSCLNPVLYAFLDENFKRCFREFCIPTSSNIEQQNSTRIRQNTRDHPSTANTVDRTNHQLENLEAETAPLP", "test": "[35S]GTPγS binding assay, inhibition of DAMGO-stimulated binding"}, "[3]": {"target": "cloned human κ opioid receptor (KOP) (Homo sapiens, UniProt P41145)", "sequence (P41145 whole entry)": "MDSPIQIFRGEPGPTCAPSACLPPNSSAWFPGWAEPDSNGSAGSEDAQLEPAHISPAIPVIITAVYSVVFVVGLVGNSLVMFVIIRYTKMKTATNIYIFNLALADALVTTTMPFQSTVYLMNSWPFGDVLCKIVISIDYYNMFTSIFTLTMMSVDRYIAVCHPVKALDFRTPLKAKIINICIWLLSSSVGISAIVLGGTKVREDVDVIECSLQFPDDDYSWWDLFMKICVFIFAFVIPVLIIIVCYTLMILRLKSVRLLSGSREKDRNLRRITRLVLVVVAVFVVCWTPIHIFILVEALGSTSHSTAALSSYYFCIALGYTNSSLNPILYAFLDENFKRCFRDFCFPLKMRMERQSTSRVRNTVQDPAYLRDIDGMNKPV", "test": "[35S]GTPγS binding assay, inhibition of U69,593-stimulated binding", "settings": "for δ/κ: selectivity for κ relative to δ (fold)"}}, "data": [{"compound": "COc1cc(C(=O)N[C@H](CN2CCN(c3cccc(O)c3)[C@@H](C)C2)C(C)C)ccc1Oc1ccccc1O", "note": "[12i, 4-(2-Hydroxyphenoxy)-N-[(1S)-1-{[(3S)-4-(3-hydroxyphenyl)-3-methylpiperazin-1-yl]methyl}-2-methylpropyl]-3-methoxybenzamide]", "values": [{"measurement": "Kb", "setting": "[1]", "value": "117 ± 60", "unit": "nM"}]}, {"compound": "CC(C)[C@@H](CN1CCN(c2cccc(O)c2)[C@@H](C)C1)NC(=O)[C@H]1Cc2ccc(O)cc2CN1", "note": "[10a, (3R)-7-Hydroxy-N-[(1S)-1-{[(3S)-4-(3-hydroxyphenyl)-3-methylpiperazin-1-yl]methyl}-2-methylpropyl]-1,2,3,4-tetrahydroisoquinoline-3-carboxamide]", "values": [{"measurement": "Kb", "setting": "[2]", "value": "74.2 ± 7.6", "unit": "nM"}, {"measurement": "Kb", "setting": "[1]", "value": "1310 ± 317", "unit": "nM"}]}, {"compound": "Cc1cccc(Oc2ccc(C(=O)N[C@H](CN3CCN(c4cccc(O)c4)[C@@H](C)C3)C(C)C)c(O)c2)c1", "note": "[12h, 2-Hydroxy-N-[(1S)-1-{[(3S)-4-(3-hydroxyphenyl)-3-methylpiperazin-1-yl]methyl}-2-methylpropyl]-4-(3-methylphenoxy)benzamide]", "values": [{"measurement": "Kb", "setting": "[2]", "value": "119 ± 28", "unit": "nM"}, {"measurement": "Kb", "setting": "[1]", "value": "880 ± 320", "unit": "nM"}, {"measurement": "Kb", "setting": "[3]", "value": "1.9 ± 0.4", "unit": "nM"}]}, {"compound": "CC(C)[C@@H](CN1CCN(c2cccc(O)c2)[C@@H](C)C1)NC(=O)c1ccc(-c2ccccc2)cc1", "note": "[compound 22, N-[(1S)-1-{[(3S)-4-(3-Hydroxyphenyl)-3-methylpiperazin-1-yl]methyl}-2-methylpropyl]biphenyl-4-carboxamide]", "values": [{"measurement": "Kb", "setting": "[2]", "value": "8.69 ± 3", "unit": "nM"}, {"measurement": "Kb", "setting": "[1]", "value": "258 ± 88", "unit": "nM"}, {"measurement": "Kb", "setting": "[3]", "value": "1.87 ± 0.47", "unit": "nM"}]}, {"compound": "Cc1cccc(Oc2ccc(C(=O)N[C@H](CN3CCN(c4cccc(O)c4)[C@@H](C)C3)C(C)C)c(C)c2)c1", "note": "[12f, N-[(1S)-1-{[(3S)-4-(3-Hydroxyphenyl)-3-methylpiperazin-1-yl]methyl}-2-methylpropyl]-2-methyl-4-(3-methylphenoxy)benzamide]", "values": [{"measurement": "Kb", "setting": "[2]", "value": "18 ± 3", "unit": "nM"}, {"measurement": "Kb", "setting": "[1]", "value": "14 ± 3", "unit": "nM"}]}, {"compound": "CC(C)[C@@H](CN1CCN(c2cccc(O)c2)[C@H](C)C1)NC(=O)[C@H]1Cc2ccc(O)cc2CN1", "note": "[10b, (3R)-7-Hydroxy-N-[(1S)-1-[[(3R)-4-(3-hydroxyphenyl)-3-methylpiperazin-1-yl]methyl}-2-methylpropyl]-1,2,3,4-tetrahydroisoquinoline-3-carboxamide]", "values": [{"measurement": "Kb", "setting": "[2]", "value": "49.4 ± 2.7", "unit": "nM"}, {"measurement": "Kb", "setting": "[1]", "value": "1550 ± 251", "unit": "nM"}]}, {"compound": "COc1cc(C(=O)N[C@H](CN2CCN(c3cccc(O)c3)[C@@H](C)C2)C(C)C)ccc1Oc1cc(C)ccc1O", "note": "[12k, 4-(2-Hydroxy-5-methylphenoxy)-N-[(1S)-1-{[(3S)-4-(3-hydroxyphenyl)-3-methylpiperazin-1-yl]methyl}-2-methylpropyl]-3-methoxybenzamide]", "values": [{"measurement": "Kb", "setting": "[2]", "value": "10.2 ± 3", "unit": "nM"}, {"measurement": "Kb", "setting": "[1]", "value": "117 ± 80", "unit": "nM"}]}, {"compound": "N-(1S)-1-{[(3S)-4-(3-Hydroxyphenyl)-3-methylpiperazin-1-yl]methyl}-2-methylpropyl]-5-phenoxypyridine-2-carboxamide [compound 14]", "values": [{"measurement": "δ/κ", "setting": "[3]; ratio of Ke values", "value": 1119}, {"measurement": "μ/κ", "setting": "[3]; ratio of Ke values, selectivity for κ relative to μ (fold)", "value": 38}]}, {"compound": "CC(C)[C@@H](CN1CCN(c2cccc(O)c2)[C@@H](C)C1)NC(=O)c1ccc(Oc2ccccc2O)c(Cl)c1", "note": "[12j, 3-Chloro-4-(2-hydroxyphenoxy)-N-[(1S)-1-{[(3S)-4-(3-hydroxyphenyl)-3-methylpiperazin-1-yl]methyl}-2-methylpropyl]benzamide]", "values": [{"measurement": "Kb", "setting": "[2]", "value": "36 ± 9", "unit": "nM"}, {"measurement": "Kb", "setting": "[1]", "value": "210 ± 82", "unit": "nM"}, {"measurement": "Kb", "setting": "[3]", "value": "5 ± 0.82", "unit": "nM"}]}, {"compound": "COc1ccc(C(=O)N[C@H](CN2CCN(c3cccc(O)c3)[C@@H](C)C2)C(C)C)cc1OC", "note": "[compound 24, N-[(1S)-1-{[(3S)-4-(3-Hydroxyphenyl)-3-methylpiperazin-1-yl]methyl}-2-methylpropyl]-3,4-dimethoxybenzamide]", "values": [{"measurement": "Kb", "setting": "[2]", "value": "334 ± 110", "unit": "nM"}, {"measurement": "Kb", "setting": "[1]", "value": "> 10000", "unit": "nM"}, {"measurement": "Kb", "setting": "[3]", "value": "81.7 ± 30", "unit": "nM"}, {"measurement": "δ/κ", "setting": "[3]; ratio of Ke values", "value": ">122"}]}, {"compound": "CCCCc1ccc(C(=O)N[C@H](CN2CCN(c3cccc(O)c3)[C@@H](C)C2)C(C)C)cc1", "note": "[compound 23, 4-Butyl-N-[(1S)-1-{[(3S)-4-(3-hydroxyphenyl)-3-methylpiperazin-1-yl]methyl}-2-methylpropyl]benzamide]", "values": [{"measurement": "Kb", "setting": "[2]", "value": "21.1 ± 2", "unit": "nM"}, {"measurement": "Kb", "setting": "[1]", "value": "230 ± 3", "unit": "nM"}, {"measurement": "Kb", "setting": "[3]", "value": "2.8 ± 1", "unit": "nM"}]}]}
